Laboratory results: PMC4215196 (Journal of nuclear medicine : official publication, Society …, 2009)

How the values were obtained:
B16 melanoma = conditions: C57BL6 mice bearing B16 melanoma, 24 h; cited from earlier work
[1] = In vitro stability in mouse serum; assay type: in vitro ADME; conditions: for percentage of intact probe: 37°C
[2] = µPET ROI analysis, normal lung
[3] = tested on: B16F10 melanoma lung metastases; assay: µPET ROI analysis, B16F10 lung metastases model; conditions: lungs harboring metastasis
[4] = tested on: B16F10 pulmonary metastases; assay: Biodistribution in B16F10 lung metastases bearing mice; conditions: 2 h p.i.
A375M tumors = conditions: µPET
B16F10 cells = assay: In vitro cell uptake in B16F10 cells
B16F10 melanoma = assay: Biodistribution in subcutaneous B16F10 tumor bearing mice
[5] = subcutaneous B16F10 tumor bearing mice, 2 h p.i.

CCN(CC)CCNC(=O)c1ccc([125I])cc1 [^125I-BZA, N-(2-diethylaminoethy1)-4-^125I-iodo-benzamide]
tumor-to-blood ratio (B16 melanoma): 37.3 ± 6.9

CCN(CC)CCNC(=O)c1ccc([18F])cc1 [^18F-FBZA, ^18F-N-[2-(diethylamino)ethyl]-4-fluoro-Benzamide]
percentage of intact probe ([1]; 30 min incubation): 94.1% | percentage of intact probe ([1]; 60 min incubation): 93.5% | percentage of intact probe ([1]; 120 min incubation): 87.8% | percentage of intact probe ([1]; 150 min incubation): 85.1% | Defluorination ([1]; up to 150 min): not observed | lung uptake, µPET ROI analysis [2]: 1.2 ± 0.2 %ID/g | lung uptake, µPET ROI analysis ([3]; tumor dose 0.4 × 10^6 B16F10 cells): 9.0 ± 0.4 %ID/g | lung uptake, µPET ROI analysis ([3]; tumor dose 0.8 × 10^6 B16F10 cells): 15.3 ± 1.1 %ID/g | Uptake Ratio Lung / Blood ([4]; lung metastases from 0.2 × 10^6 B16F10 cells): 24.7 ± 13.5 | Uptake Ratio Lung / Blood ([4]; lung metastases from 0.4 × 10^6 B16F10 cells): 38.9 ± 10.3 | tumor uptake, PET ROI analysis (A375M tumors): 0.86 ± 0.03 %ID/g | cellular accumulation (B16F10 cells; B16F10 cells pretreated with L-tyrosine (2.0 mM) 24 h, 4°C, 30 minutes): 4.5 ± 0.5% | cell uptake (B16F10 cells; B16F10 cells pretreated with L-tyrosine (2.0 mM) 24 h, 37°C, 30 minutes): 10.7 ± 0.8% | cellular accumulation (B16F10 cells; non-treated B16F10 cells, 2-hour incubation, 4 °C): 0.49 ± 0.03% | cellular accumulation (B16F10 cells; non-treated B16F10 cells, 2-hour incubation, 37 °C): 0.52 ± 0.1% | uptake at 4°C less than cellular uptake at 37°C (B16F10 cells; tyrosine stimulated B16F10 cells, 30 minutes): 58% | fold increase of uptake compared to non-treated B16F10 cells (B16F10 cells; tyrosine stimulated cells, 37°C): 18–25 fold | tumor to brain ratio (B16F10 melanoma; B16F10 model, 1 h): 5.14 ± 1.10 | lung-to-blood ratio (B16F10 melanoma; B16F10 subcutaneous tumor bearing mice, 2 h): 4.72 ± 0.46 | Uptake Ratio Tumor / Blood (B16F10 melanoma; [5]): 34.0 ± 13.2 | Uptake Ratio Tumor / Muscle (B16F10 melanoma; [5]): 23.3 ± 10.1
